US10214512B2, “Factor XIA inhibitors” (MERCK SHARP & DOHME CORP., priority 2015, dated 2019)

Tests used:
[1] = molecular target: purified Human plasma Kallikrein (Homo sapiens (Human), UniProt P03952); assay: Kallikrein Assay; type: biochemical; conditions: purified Human plasma Kallikrein 0.5 nM; substrate Acetyl-K-P-R-AFC; 50 mM HEPES pH 7.4; Ki from IC50 by Cheng Prusoff
Procedure, shortened: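 Purified human plasma kallikrein (0.5 nM) with fluorogenic Ac-K-P-R-AFC ([…]) in 50 mM HEPES pH 7.4, 150 mM NaCl, 5 mM CaCl2, 0.1% PEG 8000, at rt or 37 °C. Substrate hydrolysis rate read with and without inhibitor; IC50 from four-parameter logistic fit, converted to Ki by Cheng–Prusoff.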

[2] = molecular target: purified human Factor XIa (Homo sapiens (Human), UniProt P03951); assay: Factor XIa Assay; type: biochemical; conditions: purified human Factor XIa 40 pM; substrate Z-Gly-Pro-Arg-AFC 100 μM; 50 mM HEPES pH 7.4; read-out: Human FXIa Ki
Procedure, shortened: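 Ki obtained from the dependence of uninhibited/inhibited initial-velocity ratio on inhibitor concentration, under a competitive-inhibition model. Reactions used 100 μM Z-Gly-Pro-Arg-AFC and 40 pM final human Factor XIa in pH 7.4 HEPES buffer with NaCl, CaCl2 and PEG 8000; run at rt or 37° C following pre-equilibration.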

Sequence of purified Human plasma Kallikrein (P03952 391-638): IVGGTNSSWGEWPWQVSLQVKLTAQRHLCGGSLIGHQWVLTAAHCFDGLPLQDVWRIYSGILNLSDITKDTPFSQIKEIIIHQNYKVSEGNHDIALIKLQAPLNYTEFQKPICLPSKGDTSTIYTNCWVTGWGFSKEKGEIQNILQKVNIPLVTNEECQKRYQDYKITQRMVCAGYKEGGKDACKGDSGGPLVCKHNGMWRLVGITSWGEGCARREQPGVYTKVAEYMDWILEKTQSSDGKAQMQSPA
Sequence of purified Human plasma Kallikrein (P03952 20-390 partner): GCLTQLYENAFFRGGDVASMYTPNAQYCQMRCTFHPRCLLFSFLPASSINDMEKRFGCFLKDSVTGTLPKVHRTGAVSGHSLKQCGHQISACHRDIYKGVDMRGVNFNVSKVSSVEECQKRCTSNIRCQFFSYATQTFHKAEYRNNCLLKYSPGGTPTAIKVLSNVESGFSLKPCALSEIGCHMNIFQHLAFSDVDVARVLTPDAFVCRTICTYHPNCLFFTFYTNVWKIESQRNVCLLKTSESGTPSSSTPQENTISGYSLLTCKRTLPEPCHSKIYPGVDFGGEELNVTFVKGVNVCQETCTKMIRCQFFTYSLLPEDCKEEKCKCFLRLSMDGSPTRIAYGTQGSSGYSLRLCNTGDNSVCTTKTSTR
Sequence of purified human Factor XIa (P03951 388-625): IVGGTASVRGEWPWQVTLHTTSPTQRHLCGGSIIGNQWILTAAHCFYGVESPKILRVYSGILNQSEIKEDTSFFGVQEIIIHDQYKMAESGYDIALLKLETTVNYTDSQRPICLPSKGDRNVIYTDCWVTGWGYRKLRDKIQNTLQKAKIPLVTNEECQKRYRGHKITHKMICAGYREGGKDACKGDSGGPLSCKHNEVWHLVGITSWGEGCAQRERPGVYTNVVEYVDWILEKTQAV
Sequence of purified human Factor XIa (P03951 19-387 partner): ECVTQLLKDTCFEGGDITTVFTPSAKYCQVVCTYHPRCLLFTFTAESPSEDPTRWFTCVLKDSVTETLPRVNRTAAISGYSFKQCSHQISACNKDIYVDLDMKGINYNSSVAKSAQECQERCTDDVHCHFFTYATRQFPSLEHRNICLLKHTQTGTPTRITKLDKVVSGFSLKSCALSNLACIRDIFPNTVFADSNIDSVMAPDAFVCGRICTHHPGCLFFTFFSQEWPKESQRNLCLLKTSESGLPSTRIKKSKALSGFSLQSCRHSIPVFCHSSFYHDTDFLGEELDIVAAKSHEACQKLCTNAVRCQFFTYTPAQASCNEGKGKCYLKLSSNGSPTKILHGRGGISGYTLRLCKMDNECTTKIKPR

Row | Structure (SMILES) | Ki [1] [nM] | Ki [2] [nM]
1 | COC(=O)Nc1ccc2c(c1)NC(=O)CCCCC(c1ccc(-c3cc(Cl)ccc3-n3cnnn3)c[n+]1[O-])c1cc(F)cc-2c1 (centres unmarked) [Example 52, 5-(5-chloro-2-(1h-tetrazol-1-yl)phenyl)-2-(1^5-fluoro-2^4-((methoxycarbonyl)amino)-4-oxo-3-aza-1(1,3),2(1,2) -dinenzenacyclononaphane-9-yl)pyridine 1-oxide] | 1.43 | 0.32
2 | O=C1CCCCC(c2ccc(-c3cc(Cl)ccc3-n3cnnn3)cn2)c2ccnc(c2)-c2cc(F)ccc2N1 (centres unmarked) [Example 56, 9-(5-(5-chloro-2-(1h-tetrazol-1-yl)phenyl)pyridin-2-yl)-25-fluoro-3-aza-1(2,4)-pyridina-2(1,2)-benzenacyclononaphan-4-one] | 149 | 14.1
3 | COC(=O)Nc1ccc2c(c1)NC(=O)CCCCC(c1ccc(-c3cc(Cl)ccc3-n3cnnn3)cn1)c1cc-2ncc1F (centres unmarked) [Example 57, methyl (9-(5-(5-chloro-2-(1h-tetrazol-1-yl)phenyl)pyridin-2-yl)-1^5-fluoro-4-oxo-3-aza-1(2,4)-pyridina-2(1,2)-benzenacyclononaphane-2^4-yl)carbamate] | 12.1 | 0.52
4 | COC(=O)Nc1ccc2c(c1)NC(=O)CCCCC(c1ccc(-c3cc(Cl)ccc3-n3cnnn3)cn1)c1cc-2c(F)cn1 (centres unmarked) [Example 61, methyl (9-(5-(5-chloro-2-(1h-tetrazol-1-yl)phenyl)pyridin-2-yl)-1^5-fluoro-4-oxo-3-aza-1(4,2)-pyridina-2(1,2)-benzenacyclononaphane-2^4-yl)carbamate] | 26 | 1.4
5 | COC(=O)Nc1ccc2c(c1)NC(=O)CCCCC(c1ccc(-c3cc(Cl)ccc3-n3cnnn3)cn1)c1cc-2ncn1 (centres unmarked) [Example 65, methyl (9-(5-(5-chloro-2-(1h-tetrazol-1-yl)phenyl)pyridin-2-yl)-4-oxo-3-aza-1(4,6)-pyrimidina-2(1,2)-benzenacyclononaphane-2^4-yl)carbamate] | 6 | 2.9
6 | O=C1CCCCC(c2ccc(-c3cc(Cl)ccc3-n3cnnn3)c[n+]2[O-])c2ccnc(c2)-c2cc(F)ccc2N1 (centres unmarked) [Example 70, 5-(5-chloro-2-(1H-tetrazol-1-yl)phenyl)-2-(2^5-fluoro-4-oxo-3-aza-1(2,4)-pyridina-2(1,2)-benzenacyclononaphane-9-yl)pyridine 1-oxide] | 2.09 | 0.37
7 | O=C1CCCCC(c2ccc(-c3cc(Cl)ccc3-n3cnnn3)c[n+]2[O-])c2cc[n+]([O-])c(c2)-c2cc(F)ccc2N1 (centres unmarked) [Example 80, 9-(5-(5-chloro-2-(1h-tetrazol-1-yl)phenyl)-1-oxidopyridin-2-yl)-2^5-fluoro-4-oxo-3-aza-1(2,4)-pyridin-1-iuma-2(1,2)-benzenacyclononaphane 1^1-oxide] | 13.3 | 0.59
8 | COC(=O)Nc1ccc2c(c1)NC(=O)CCCCC(c1ccc(-c3c(F)ccc(Cl)c3F)c[n+]1[O-])c1cc-2[n+]([O-])cc1F (centres unmarked) [Example 82, 9-(5-(3-chloro-2,6-difluorophenyl)-1-oxidopyridin-2-yl)-1^5-fluoro-2^4-((methoxycarbonyl)amino)-4-oxo-3-aza-1(2,4)-pyridin-1-iuma-2(1,2)-benzenacyclononaphane 1^1-oxide] | 9.58 | 3.7
9 | COC(=O)Nc1ccc2c(c1)NC(=O)CCCCC(c1ccc(-c3c(F)ccc(Cl)c3F)c[n+]1[O-])c1cc-2cc[n+]1[O-] (centres unmarked) [Example 83, 9-(5-(3-chloro-2,6-difluorophenyl)-1-oxidopyridin-2-yl)-2^4-((methoxycarbonyl)amino)-4-oxo-3-aza-1(4,2)-pyridin-1-iuma-2(1,2)-benzenacyclononaphane 1^1-oxide] | 5.47 | 2.2
10 | CC1CCCC(c2ccc(-c3cc(Cl)ccc3-n3cnnn3)c[n+]2[O-])c2cccc(c2)-c2ccc(C#N)cc2NC1=O (centres unmarked) [Example 84, 5-(5-chloro-2-(1H-tetrazol-1-yl)phenyl)-2-(2^4-cyano-5-Methyl-4-OXO-3-aza-1(1,3), 2(1,2)-dinenzenacyclononaphane-9-yl)pyridine 1-oxide] | 1.85 | 0.38
11 | COC(=O)Nc1ccc2c(c1)NC(=O)CCCCC(c1ccc(-c3c(F)ccc(Cl)c3F)c[n+]1[O-])c1cc[n+]([O-])c-2c1 (centres unmarked) [Example 94, 9-(5-(3-Chloro-2,6-difluorophenyl)-1-oxidopyridin-2-yl)-2^4-((methoxycarbonyl)amino)-4-oxo-3-aza-1(2,4)-pyridin-1-iuma-2(1,2) -benzenacyclononaphane 1-oxide] | 11.3 | 5.1
12 | COC(=O)Nc1ccc2c(c1)NC(=O)CCCCC(c1ccc(-c3cc(Cl)ccc3-n3cnnn3)cn1)c1nc-2c[nH]1 (centres unmarked) [Example 97, methyl (Z)-(9-(5-(5-chloro-2-(1H-tetrazol-1-yl)phenyl)pyridin-2-yl)-4-oxo-1^1H-3-AZA-1(4,2)-imidazola-2(1,2)-benzenacyclononaphane-2^4-yl)carbamate] | 161 | 3.3
13 | O=C1CCCCC(c2ccc(-c3cc(Cl)ccc3-n3cc(C(F)(F)F)nn3)c[n+]2[O-])c2cccc(c2)-c2c(cnn2C(F)F)N1 (centres unmarked) [Example 165, 5-(5-chloro-2-(4-(trifluoromethyl)-1H-1,2,3-triazol-1-yl)phenyl)-2-(1^1-(difluoromethyl)-8-oxo-1^1H-9-aza-1(5,4)-pyrazola-2(1,3) -benzenacyclononaphane-3-Yl)pyridine 1-oxide] | 5.76 | 0.21
